Source: article PMC8500839, “Structures of outer-arm dynein array on microtubule doublet reveal a motor coordination mechanism” (Nature Structural & Molecular Biology, 2021)

T1: outer-arm dynein intermediate chain IC3 (T. thermophila, UniProt Q23FU1 1-670)
T1 construct: outer-arm dynein intermediate chain 3, T. thermophila, native subunit; source: purified from T. thermophila cilia as a subunit of native OAD (high salt extraction, sucrose gradient, ion exchange)
T1 sequence (looked up): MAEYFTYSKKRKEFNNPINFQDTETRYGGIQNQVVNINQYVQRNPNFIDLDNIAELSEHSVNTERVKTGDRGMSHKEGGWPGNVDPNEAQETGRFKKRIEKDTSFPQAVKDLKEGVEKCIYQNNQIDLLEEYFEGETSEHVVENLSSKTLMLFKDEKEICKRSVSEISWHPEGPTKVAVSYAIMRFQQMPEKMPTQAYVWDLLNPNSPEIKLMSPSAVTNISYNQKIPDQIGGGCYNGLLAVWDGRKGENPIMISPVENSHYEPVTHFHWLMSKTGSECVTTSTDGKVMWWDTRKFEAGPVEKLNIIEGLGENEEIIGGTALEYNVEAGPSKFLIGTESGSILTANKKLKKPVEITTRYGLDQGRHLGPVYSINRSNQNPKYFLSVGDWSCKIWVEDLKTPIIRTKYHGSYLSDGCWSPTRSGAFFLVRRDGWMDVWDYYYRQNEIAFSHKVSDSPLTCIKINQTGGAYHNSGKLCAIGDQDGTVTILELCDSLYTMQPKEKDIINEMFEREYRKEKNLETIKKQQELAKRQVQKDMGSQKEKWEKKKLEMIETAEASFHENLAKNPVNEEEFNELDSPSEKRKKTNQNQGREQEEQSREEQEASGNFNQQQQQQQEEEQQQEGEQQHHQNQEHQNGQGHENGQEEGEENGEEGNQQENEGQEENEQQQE

B1: Tctex-b (LC2A) (natural protein, T. thermophila, UniProt C0HME8 1-132, looked up)
chain: MKGTYLYLNIYKRKREASLITLNYIKNRFYPSKIQKIIKELFEDRLKGVEYDPNNANQLSERLVLELREKIKRGKVPRYKIGVQVVFGEIKGQGLRIASKCLWDVQNDNYASYTYTSEKVYCTGIVFGCYFE
notes: light chain LC2A, the best hit for the Tctex-b position, T. thermophila; source: purified from T. thermophila cilia as a subunit of native OAD (high salt extraction, sucrose gradient, ion exchange)
B2: outer-arm dynein intermediate chain IC2 (natural protein, T. thermophila, UniProt I7M008 1-667, looked up)
chain: MPPKQTKVVASRKTVMPISRAGRAQIRRKDSNTQNNMNDQGMEDEEIDQQREGMKNQYEQLTAQELNEDMPSKMLEPKNPQAPKNITVYDYYTRKFKTDELVDQMIVHFSMDGDYIWKESNEYKTQEEIRDTKKALIKEAMRKQESEEPGANHDEEAIKQTLRNKFNYNTRECQTINPSIRERGVSTEPPPSDTICGNITQWEIFDAYYAEIMKDHQIENKKKKEVDQDKKQDQSMYSTSFKRCCKIMERMVVQNDQEDKYHDYRYYWSQGDNLEAGKNEGHLLPIWRFSNEKQRKKNVTSICWNPLYPDLFAVSLGSYDFTKQRMGLICLYSLKNTTHPEYAFNCEAGVMCLDFHPKSAALLAVGLYDGTVLVYDIRNKHKKPIYQSTVRNQKHTDPVWQVKWNPDTSKNYNFYSISSDGRVMNWILMKNKLEPEEVILLRLVGKNEEESTLIGLACGLCFDFNKFEPHIFLVGTEEGKIHKCSRAYSGQYQETYNGHLLAVYKVKWNNFHPRTFISASADWTVRIWDSKYTSQIICFDLSMMVVDAVWAPYSSTVFACATMDKVQVYDLNVDKLNKLAEQKIVKQPKLTNLSFNYKDPILLVGDSHGGVTLVKLSPNLCKSGPEIKQTEDKKAMEEFKNVKIEDYEREKMENLLAVVSKWEREDA
notes: outer-arm dynein intermediate chain 2, T. thermophila, native subunit; source: purified from T. thermophila cilia as a subunit of native OAD (high salt extraction, sucrose gradient, ion exchange)

Key:
outer-arm dynein (OAD) [1] = target: T2, outer-arm dynein (OAD) (Tetrahymena thermophila, UniProt I7M6H4+I7M9J2+Q22A67); assay: negative-stain EM count of OAD array length / coverage on MTD; assay type: biochemical; conditions: 10 to 1,000 μM ATPγS; slowly hydrolysed; 45 nM OAD; 20 mM HEPES pH 7.4, 100 mM KCl, 5 mM MgSO4, 1 mM DTT
T2 construct: gene TTHERM_01276420; native OAD, high-salt extract of axonemes, sucrose gradient and ion exchange; not cross-linked; with Dynein intermediate chain 2; Dynein intermediate chain 3; Dynein light chain LC7-a (LC7A homolog); Dynein light chain LC7B; Dynein light chain LC10; Dynein light chain DLC82; Dynein light chain LC8E; Dynein light chain LC8-2b; Dynein light chain LC8-3a; Dynein light chain LC8-3b; Dynein light chain Tctex-a; Dynein light chain LC2A; Dynein light chain LC4A; Dynein light chain LC3BL; Dynein light chain 1

[2] = target: T3, γ-HC (γ-motor domain) of T. thermophila OAD (Tetrahymena thermophila, UniProt I7M6H4); assay: cryo-EM structure of OAD-MTD array; assay type: binding; conditions: Mg2+, no nucleotide added (apo state, co-purified)
T3 construct: gene TTHERM_00486600; from cilia

[3] = target: T4, β-HC (β-motor domain) of T. thermophila OAD (Tetrahymena thermophila, UniProt I7M9J2); assay: cryo-EM structure of OAD-MTD array; assay type: binding; conditions: Mg2+, no nucleotide added (apo state, co-purified)
T4 construct: gene TTHERM_00499300; from cilia

[4] = target: T5, α-HC (α-motor domain) of T. thermophila OAD (Tetrahymena thermophila, UniProt Q22A67); assay: cryo-EM structure of OAD-MTD array; assay type: binding; conditions: Mg2+, no nucleotide added (apo state, co-purified)
T5 construct: gene TTHERM_01276420; from cilia
T5 sequence (Q22A67 1-4620): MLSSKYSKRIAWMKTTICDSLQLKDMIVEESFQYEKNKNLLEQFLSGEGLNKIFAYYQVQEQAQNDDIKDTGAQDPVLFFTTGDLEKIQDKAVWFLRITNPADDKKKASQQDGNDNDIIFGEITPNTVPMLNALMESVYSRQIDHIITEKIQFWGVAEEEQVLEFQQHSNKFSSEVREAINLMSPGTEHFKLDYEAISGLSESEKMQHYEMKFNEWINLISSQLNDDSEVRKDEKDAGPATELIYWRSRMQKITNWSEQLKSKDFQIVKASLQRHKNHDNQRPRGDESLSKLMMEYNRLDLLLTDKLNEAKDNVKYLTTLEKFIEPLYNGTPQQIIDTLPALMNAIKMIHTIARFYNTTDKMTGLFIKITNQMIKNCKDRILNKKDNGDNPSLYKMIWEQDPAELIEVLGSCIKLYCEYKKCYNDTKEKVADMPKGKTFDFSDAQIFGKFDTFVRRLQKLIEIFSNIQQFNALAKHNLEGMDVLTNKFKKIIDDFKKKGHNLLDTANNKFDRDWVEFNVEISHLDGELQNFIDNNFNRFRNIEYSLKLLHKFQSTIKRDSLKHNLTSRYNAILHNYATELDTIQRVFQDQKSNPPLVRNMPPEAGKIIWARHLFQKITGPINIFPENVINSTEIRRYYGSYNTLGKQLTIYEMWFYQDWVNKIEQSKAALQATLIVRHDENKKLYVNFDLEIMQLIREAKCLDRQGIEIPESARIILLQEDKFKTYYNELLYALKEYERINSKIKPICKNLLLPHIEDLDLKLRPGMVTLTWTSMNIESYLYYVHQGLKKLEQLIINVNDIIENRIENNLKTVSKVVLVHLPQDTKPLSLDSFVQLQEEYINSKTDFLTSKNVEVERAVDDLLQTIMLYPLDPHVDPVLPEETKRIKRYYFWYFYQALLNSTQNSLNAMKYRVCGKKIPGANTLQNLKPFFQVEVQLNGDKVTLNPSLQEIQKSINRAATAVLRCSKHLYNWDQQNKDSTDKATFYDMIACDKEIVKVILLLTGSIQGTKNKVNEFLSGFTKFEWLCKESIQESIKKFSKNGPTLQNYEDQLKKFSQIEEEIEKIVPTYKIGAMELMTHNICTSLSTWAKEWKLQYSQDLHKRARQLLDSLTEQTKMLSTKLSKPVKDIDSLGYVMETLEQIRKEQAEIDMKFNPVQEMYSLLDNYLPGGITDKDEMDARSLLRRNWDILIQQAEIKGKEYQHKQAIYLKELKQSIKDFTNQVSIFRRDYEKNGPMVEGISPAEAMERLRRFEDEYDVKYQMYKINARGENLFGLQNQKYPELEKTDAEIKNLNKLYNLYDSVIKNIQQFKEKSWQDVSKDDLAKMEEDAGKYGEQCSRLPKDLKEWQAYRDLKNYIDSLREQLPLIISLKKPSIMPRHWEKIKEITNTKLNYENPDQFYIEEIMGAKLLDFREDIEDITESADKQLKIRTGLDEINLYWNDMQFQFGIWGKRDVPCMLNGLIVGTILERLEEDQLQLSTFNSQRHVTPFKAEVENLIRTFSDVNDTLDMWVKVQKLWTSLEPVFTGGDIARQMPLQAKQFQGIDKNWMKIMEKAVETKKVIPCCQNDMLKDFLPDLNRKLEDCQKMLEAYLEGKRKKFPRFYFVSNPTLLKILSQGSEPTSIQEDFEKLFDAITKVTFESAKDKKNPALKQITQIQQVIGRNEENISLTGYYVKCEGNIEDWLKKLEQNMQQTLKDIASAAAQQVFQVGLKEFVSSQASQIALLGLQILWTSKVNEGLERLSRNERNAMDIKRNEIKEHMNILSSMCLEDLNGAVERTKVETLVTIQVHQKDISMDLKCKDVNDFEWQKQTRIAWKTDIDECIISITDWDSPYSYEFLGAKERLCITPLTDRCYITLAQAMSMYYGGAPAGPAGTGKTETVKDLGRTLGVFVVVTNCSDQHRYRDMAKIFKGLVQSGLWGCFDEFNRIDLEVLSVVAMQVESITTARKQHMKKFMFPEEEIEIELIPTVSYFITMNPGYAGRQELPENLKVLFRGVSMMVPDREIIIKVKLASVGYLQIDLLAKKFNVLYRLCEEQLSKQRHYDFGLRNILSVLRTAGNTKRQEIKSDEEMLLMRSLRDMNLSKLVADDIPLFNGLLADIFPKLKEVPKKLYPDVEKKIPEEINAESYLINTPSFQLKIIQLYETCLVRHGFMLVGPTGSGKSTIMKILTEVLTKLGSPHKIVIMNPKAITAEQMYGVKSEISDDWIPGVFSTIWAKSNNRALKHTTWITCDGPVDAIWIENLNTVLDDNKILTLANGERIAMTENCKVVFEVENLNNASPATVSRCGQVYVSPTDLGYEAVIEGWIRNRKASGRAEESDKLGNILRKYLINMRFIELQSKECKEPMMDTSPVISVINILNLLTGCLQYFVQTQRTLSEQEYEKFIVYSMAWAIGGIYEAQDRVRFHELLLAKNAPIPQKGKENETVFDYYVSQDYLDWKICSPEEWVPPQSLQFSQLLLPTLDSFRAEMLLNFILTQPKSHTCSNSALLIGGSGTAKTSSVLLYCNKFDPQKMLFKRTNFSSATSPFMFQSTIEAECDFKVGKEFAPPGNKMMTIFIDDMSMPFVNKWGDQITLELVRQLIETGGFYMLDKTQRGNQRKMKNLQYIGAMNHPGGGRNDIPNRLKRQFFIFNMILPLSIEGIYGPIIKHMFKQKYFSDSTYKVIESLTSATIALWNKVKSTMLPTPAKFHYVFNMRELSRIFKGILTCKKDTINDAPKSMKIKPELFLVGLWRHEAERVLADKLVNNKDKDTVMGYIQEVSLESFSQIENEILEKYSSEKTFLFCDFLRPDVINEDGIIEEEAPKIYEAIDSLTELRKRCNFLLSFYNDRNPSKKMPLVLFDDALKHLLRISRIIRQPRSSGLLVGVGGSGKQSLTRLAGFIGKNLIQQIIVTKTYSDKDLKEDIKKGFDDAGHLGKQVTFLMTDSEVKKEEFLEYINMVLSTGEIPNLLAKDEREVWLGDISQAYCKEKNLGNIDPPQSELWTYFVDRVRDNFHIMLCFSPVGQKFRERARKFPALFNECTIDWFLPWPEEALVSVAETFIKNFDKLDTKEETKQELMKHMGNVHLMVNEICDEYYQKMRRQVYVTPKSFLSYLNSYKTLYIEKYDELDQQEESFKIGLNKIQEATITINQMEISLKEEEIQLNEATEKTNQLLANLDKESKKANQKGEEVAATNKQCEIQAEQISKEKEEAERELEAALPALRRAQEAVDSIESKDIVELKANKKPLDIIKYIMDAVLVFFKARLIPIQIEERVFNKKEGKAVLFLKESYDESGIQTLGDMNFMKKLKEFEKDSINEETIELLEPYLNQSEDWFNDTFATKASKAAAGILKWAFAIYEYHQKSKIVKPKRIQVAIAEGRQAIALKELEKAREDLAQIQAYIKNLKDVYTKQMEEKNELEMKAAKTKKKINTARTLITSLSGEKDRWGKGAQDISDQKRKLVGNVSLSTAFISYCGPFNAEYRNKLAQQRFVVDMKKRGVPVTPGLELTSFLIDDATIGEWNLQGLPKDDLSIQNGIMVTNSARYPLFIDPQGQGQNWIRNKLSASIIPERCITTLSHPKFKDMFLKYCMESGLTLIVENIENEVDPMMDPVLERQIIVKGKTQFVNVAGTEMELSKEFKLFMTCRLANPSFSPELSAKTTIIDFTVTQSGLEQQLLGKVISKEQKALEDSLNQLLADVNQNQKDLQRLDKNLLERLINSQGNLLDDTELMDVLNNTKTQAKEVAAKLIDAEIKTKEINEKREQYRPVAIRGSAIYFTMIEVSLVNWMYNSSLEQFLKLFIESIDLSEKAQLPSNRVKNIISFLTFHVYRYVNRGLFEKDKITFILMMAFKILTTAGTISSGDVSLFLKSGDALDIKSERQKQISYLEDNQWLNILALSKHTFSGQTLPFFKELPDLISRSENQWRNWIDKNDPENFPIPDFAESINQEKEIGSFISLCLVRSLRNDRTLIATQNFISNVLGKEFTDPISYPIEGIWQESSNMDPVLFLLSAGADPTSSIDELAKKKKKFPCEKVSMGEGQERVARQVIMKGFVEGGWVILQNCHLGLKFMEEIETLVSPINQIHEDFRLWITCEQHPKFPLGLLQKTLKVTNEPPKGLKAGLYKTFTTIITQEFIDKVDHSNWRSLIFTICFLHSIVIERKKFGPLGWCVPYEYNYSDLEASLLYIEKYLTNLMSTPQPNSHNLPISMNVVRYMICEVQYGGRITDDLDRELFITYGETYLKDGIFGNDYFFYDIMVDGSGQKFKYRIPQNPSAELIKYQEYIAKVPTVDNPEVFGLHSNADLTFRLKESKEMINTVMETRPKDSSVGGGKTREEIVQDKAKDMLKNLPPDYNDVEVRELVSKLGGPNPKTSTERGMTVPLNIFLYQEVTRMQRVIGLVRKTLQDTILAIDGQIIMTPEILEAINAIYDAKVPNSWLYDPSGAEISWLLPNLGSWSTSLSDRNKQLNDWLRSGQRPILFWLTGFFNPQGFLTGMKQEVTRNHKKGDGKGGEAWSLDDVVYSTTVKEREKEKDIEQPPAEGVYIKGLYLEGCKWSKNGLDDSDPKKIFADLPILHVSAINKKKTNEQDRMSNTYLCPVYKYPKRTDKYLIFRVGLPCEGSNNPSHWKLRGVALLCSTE

outer-arm dynein (OAD) [5] = target: T2, outer-arm dynein (OAD); assay: negative-stain EM of OAD coverage on MTD; microtubule gliding assay; assay type: biochemical; conditions: 1 mM ATP; 45 nM OAD; 20 mM HEPES pH 7.4, 100 mM KCl, 5 mM MgSO4, 1 mM DTT
[6] = target: B2; assay: cryo-EM structure; freshly purified native OAD (not cross-linked) reconstituted on MTD in 20 mM HEPES pH 7.4, 100 mM KCl, 5 mM MgSO4, 1 mM DTT, on ice 45 min; apo state, no docking complex; two classes MTBS-1 and MTBS-2; MTD lattice refined from the same data; conditions: both partners purified
[7] = target: T1, outer-arm dynein intermediate chain IC3; assay: as above; conditions: both partners purified
[8] = sites AAA3 and AAA4 (same state as β-HC)

Molecule: Nc1ncnc2c1ncn2[C@@H]1O[C@H](COP(=O)(O)OP(=O)(O)OP(O)(O)=S)[C@@H](O)[C@H]1O [ATPγS]
- negative-stain EM count of OAD array length / coverage on MTD (outer-arm dynein (OAD) [1]): Using a titration of ATPγS, we were able to gradually shorten OAD arrays in vitro

Molecule: Nc1ncnc2c1ncn2[C@@H]1O[C@H](COP(=O)(O)OP(=O)(O)O)[C@@H](O)[C@H]1O [ADP]
- cryo-EM structure of OAD-MTD array [2, 8]: Other motor domains have the same nucleotide binding states.
- cryo-EM structure of OAD-MTD array ([3]; sites AAA3 and AAA4): ATP in β-AAA2 and ADP in β-AAA3/AAA4 were unambiguously identified from the density.
- cryo-EM structure of OAD-MTD array [4, 8]: Other motor domains have the same nucleotide binding states.

Molecule: Nc1ncnc2c1ncn2[C@@H]1O[C@H](COP(=O)(O)OP(=O)(O)OP(=O)(O)O)[C@@H](O)[C@H]1O [ATP]
- cryo-EM structure of OAD-MTD array ([2]; site AAA2 (same state as β-HC)): Other motor domains have the same nucleotide binding states.
- cryo-EM structure of OAD-MTD array ([3]; site AAA2): ATP in β-AAA2 and ADP in β-AAA3/AAA4 were unambiguously identified from the density.
- cryo-EM structure of OAD-MTD array ([4]; site AAA2 (same state as β-HC)): Other motor domains have the same nucleotide binding states.
- negative-stain EM of OAD coverage on MTD; microtubule gliding assay (outer-arm dynein (OAD) [5]): fell off the MTDs in the presence of ATP, ADP·Vi or ATPγS

Molecule: B1
- binding result [6]: binds
- binding result [7]: binds

Molecule: B2
- binding result [7]: binds
